Source: ChEMBL document CHEMBL6087476, “Positive Charge-Concentrated Dimeric Lipopeptides with Enhanced Protease Resistance: A Potential Solution for Systemic Bacterial Infections” (J Med Chem, 2025)
Converted amounts (≈) assume the structure as drawn.

Tests used:
[1] = test system: Acinetobacter baumannii; assay: Antimicrobial activity against Acinetobacter baumannii AB1901 assessed as increase in absorbance incubated for 20 to 22 hrs; assay type: functional; details: time 20-22 hrs
[2] = test system: Pseudomonas aeruginosa; assay: Antimicrobial activity against Pseudomonas aeruginosa 25349 assessed as increase in absorbance incubated for 20 to 22 hrs; assay type: functional; details: time 20-22 hrs
[3] = test system: Staphylococcus aureus; assay: Antimicrobial activity against Staphylococcus aureus 11011 assessed as increase in absorbance incubated for 20 to 22 hrs; assay type: functional; details: time 20-22 hrs
[4] = test system: Acinetobacter baumannii; assay: Antimicrobial activity against Acinetobacter baumannii AB1902 assessed as increase in absorbance incubated for 20 to 22 hrs; assay type: functional; details: time 20-22 hrs
[5] = test system: Escherichia coli; assay: Antimicrobial activity against Escherichia coli K88 assessed as increase in absorbance incubated for 20 to 22 hrs; assay type: functional; details: time 20-22 hrs
[6] = test system: Pseudomonas aeruginosa; assay: Antimicrobial activity against Pseudomonas aeruginosa 27853 assessed as increase in absorbance incubated for 20 to 22 hrs; assay type: functional; details: time 20-22 hrs
[7] = test system: Salmonella typhimurium; assay: Antimicrobial activity against Salmonella typhimurium 7731 assessed as increase in absorbance incubated for 20 to 22 hrs; assay type: functional, Salmonella enterica subsp. enterica serovar Typhimurium; details: Salmonella enterica, time 20-22 hrs
[8] = test system: Enterococcus faecalis; assay: Antimicrobial activity against Enterococcus faecalis 29212 assessed as increase in absorbance incubated for 20 to 22 hrs; assay type: functional; details: time 20-22 hrs
[9] = test system: Escherichia coli; assay: Antimicrobial activity against Escherichia coli ATCC 25922 assessed as increase in absorbance incubated for 20 to 22 hrs; assay type: functional; details: time 20-22 hrs
[10] = Hemolytic activity in healthy human RBC assessed as hemolysis incubated for 1 hr by microplate reader; assay type: toxicity, cell-based; details: erythrocyte
[11] = test system: RAW264.7; assay: Cytotoxicity against mouse RAW264.7 cells assessed as cell death measured after 18 to 24 hrs by MTT assay; assay type: functional; details: time 18-24 hrs
[12] = test system: Staphylococcus aureus; assay: Antimicrobial activity against Staphylococcus aureus 29213 assessed as increase in absorbance incubated for 20 to 22 hrs; assay type: functional; details: time 20-22 hrs
[13] = test system: Staphylococcus aureus; assay: Antimicrobial activity against methicillin-resistant Staphylococcus aureus 43300 assessed as increase in absorbance incubated for 20 to 22 hrs; assay type: functional; details: time 20-22 hrs
[14] = test system: Staphylococcus epidermidis; assay: Antimicrobial activity against Staphylococcus epidermidis 12228 assessed as increase in absorbance incubated for 20 to 22 hrs; assay type: functional; details: time 20-22 hrs
[15] = test system: Staphylococcus aureus; assay: Antimicrobial activity against Staphylococcus aureus 25923 assessed as increase in absorbance incubated for 20 to 22 hrs; assay type: functional; details: time 20-22 hrs
[16] = test system: Escherichia coli; assay: Antimicrobial activity against Escherichia coli K99 assessed as increase in absorbance incubated for 20 to 22 hrs; assay type: functional; details: time 20-22 hrs
[17] = test system: Salmonella typhimurium; assay: Antimicrobial activity against Salmonella typhimurium 14028 assessed as increase in absorbance incubated for 20 to 22 hrs; assay type: functional, Salmonella enterica subsp. enterica serovar Typhimurium; details: Salmonella enterica, time 20-22 hrs
[18] = Cytotoxicity against porcine IPEC-J2 cells assessed as cell death measured after 18 to 24 hrs by MTT assay; assay type: functional; details: Sus scrofa, time 18-24 hrs
[19] = test system: HEK-293T; assay: Cytotoxicity against human HEK293T cells assessed as cell death measured after 18 to 24 hrs by MTT assay; assay type: functional; details: time 18-24 hrs

| Structure (SMILES) | MIC [1] [µM] | MIC [2] [µM] | MIC [3] [µM] | MIC [4] [µM] | MIC [5] [µM] | MIC [6] [µM] | MIC [7] [µM] | MIC [8] [µM] | MIC [9] [µM] | HC10 [10] [µM] | IC10 [11] [µM] | MIC [12] [µM] | MIC [13] [µM] | MIC [14] [µM] | MIC [15] [µM] | MIC [16] [µM] | MIC [17] [µM] | IC10 [18] [µM] | IC10 [19] [µM] |
| --- | --- | --- | --- | --- | --- | --- | --- | --- | --- | --- | --- | --- | --- | --- | --- | --- | --- | --- | --- |
| CC1(C)S[C@@H]2[C@H](NC(=O)Cc3ccccc3)C(=O)N2[C@H]1C(=O)O [PENICILLIN G SODIUM] | 64 | > 64 | > 64 | > 64 | – | – | – | – | – | – | – | – | – | – | – | – | – | – | – |
| CCCCCCCC(=O)NCCCC[C@H](NC(=O)[C@@H](N)CSSC[C@H](N)C(=O)N[C@@H](CCCCNC(=O)CCCCCCC)C(=O)NCC(=O)NCC(=O)NCC(=O)N[C@H](CCCNC(=N)N)C(=O)N[C@@H](CCCNC(=N)N)C(=O)N[C@@H](CCCNC(=N)N)C(=O)N1CCC[C@H]1C(=O)O)C(=O)NCC(=O)NCC(=O)NCC(=O)N[C@H](CCCNC(=N)N)C(=O)N[C@@H](CCCNC(=N)N)C(=O)N[C@@H](CCCNC(=N)N)C(=O)N1CCC[C@H]1C(=O)O | – | – | – | – | 8 (≈ 17.8 µg/mL) | 16 (≈ 35.6 µg/mL) | 16 (≈ 35.6 µg/mL) | 128 (≈ 285 µg/mL) | 8 (≈ 17.8 µg/mL) | 256 | 256 | 128 (≈ 285 µg/mL) | 128 (≈ 285 µg/mL) | 128 (≈ 285 µg/mL) | 128 (≈ 285 µg/mL) | 8 (≈ 17.8 µg/mL) | 16 (≈ 35.6 µg/mL) | 256 | 256 |
| CCCCCCCCCC(=O)NCCCC[C@H](NC(=O)[C@@H](N)CS)C(=O)NCC(=O)NCC(=O)NCC(=O)N[C@H](CCCNC(=N)N)C(=O)N[C@@H](CCCNC(=N)N)C(=O)N[C@@H](CCCNC(=N)N)C(=O)N1CCC[C@H]1C(=O)O | – | – | – | – | 32 (≈ 36.5 µg/mL) | 16 (≈ 18.2 µg/mL) | 64 (≈ 73 µg/mL) | 64 (≈ 73 µg/mL) | 32 (≈ 36.5 µg/mL) | 256 | 256 | 64 (≈ 73 µg/mL) | 64 (≈ 73 µg/mL) | 128 (≈ 146 µg/mL) | 64 (≈ 73 µg/mL) | 32 (≈ 36.5 µg/mL) | 32 (≈ 36.5 µg/mL) | 256 | 256 |
| CCCCCCCCCC(=O)NCCCC[C@H](N)C(=O)NCC(=O)NCC(=O)NCC(=O)N[C@H](CCCNC(=N)N)C(=O)N[C@@H](CCCNC(=N)N)C(=O)N[C@@H](CCCNC(=N)N)C(=O)N1CCC[C@H]1C(=O)N[C@@H](CS)C(=O)O | – | – | – | – | 16 (≈ 18.2 µg/mL) | 8 (≈ 9.12 µg/mL) | 32 (≈ 36.5 µg/mL) | 32 (≈ 36.5 µg/mL) | 16 (≈ 18.2 µg/mL) | 256 | 256 | 32 (≈ 36.5 µg/mL) | 32 (≈ 36.5 µg/mL) | 32 (≈ 36.5 µg/mL) | 32 (≈ 36.5 µg/mL) | 16 (≈ 18.2 µg/mL) | 16 (≈ 18.2 µg/mL) | 256 | 256 |
| CCCCCCCC(=O)NCCCC[C@H](NC(=O)[C@@H](N)CS)C(=O)NCC(=O)NCC(=O)NCC(=O)N[C@H](CCCNC(=N)N)C(=O)N[C@@H](CCCNC(=N)N)C(=O)N[C@@H](CCCNC(=N)N)C(=O)N1CCC[C@H]1C(=O)O | – | – | – | – | 64 (≈ 71.2 µg/mL) | 64 (≈ 71.2 µg/mL) | 128 (≈ 142 µg/mL) | 128 (≈ 142 µg/mL) | 64 (≈ 71.2 µg/mL) | 256 | 256 | 128 (≈ 142 µg/mL) | 128 (≈ 142 µg/mL) | 128 (≈ 142 µg/mL) | 128 (≈ 142 µg/mL) | 128 (≈ 142 µg/mL) | 128 (≈ 142 µg/mL) | 256 | 256 |
| CCCCCCCCCCCC(=O)NCCCC[C@H](N)C(=O)NCC(=O)NCC(=O)NCC(=O)N[C@H](CCCNC(=N)N)C(=O)N[C@@H](CCCNC(=N)N)C(=O)N[C@@H](CCCNC(=N)N)C(=O)N1CCC[C@H]1C(=O)N[C@@H](CS)C(=O)O | – | – | – | – | 32 (≈ 37.4 µg/mL) | 16 (≈ 18.7 µg/mL) | 32 (≈ 37.4 µg/mL) | 32 (≈ 37.4 µg/mL) | 16 (≈ 18.7 µg/mL) | 64 | 64 | 64 (≈ 74.8 µg/mL) | 64 (≈ 74.8 µg/mL) | 64 (≈ 74.8 µg/mL) | 64 (≈ 74.8 µg/mL) | 32 (≈ 37.4 µg/mL) | 64 (≈ 74.8 µg/mL) | 32 | 128 |
| O=C(O)c1cn(C2CC2)c2cc(N3CCNCC3)c(F)cc2c1=O [CIPROFLOXACIN] | 0.25 (≈ 0.0828 µg/mL) | 0.25 (≈ 0.0828 µg/mL) | > 64 | > 64 | – | – | – | – | – | – | – | – | – | – | – | – | – | – | – |
| CN[C@H](CC(C)C)C(=O)N[C@H]1C(=O)N[C@@H](CC(N)=O)C(=O)N[C@H]2C(=O)N[C@H]3C(=O)N[C@H](C(=O)N[C@H](C(=O)O)c4cc(O)cc(O)c4-c4cc3ccc4O)[C@H](O)c3ccc(c(Cl)c3)Oc3cc2cc(c3O[C@@H]2O[C@H](CO)[C@@H](O)[C@H](O)[C@H]2O[C@H]2C[C@](C)(N)[C@H](O)[C@H](C)O2)Oc2ccc(cc2Cl)[C@H]1O [VANCOMYCIN] | 32 (≈ 46.4 µg/mL) | > 64 | > 64 | > 64 | – | – | – | – | – | – | – | – | – | – | – | – | – | – | – |
